Measured values: article PMC7321301, “Characteristics of New Peptides GQLGEHGGAGMG, GEHGGAGMGGGQFQPV, EQGFLPGPEESGR, RLARAGLAQ, YGNPVGGVGH, and GNPVGGVGHGTTGT as Inhibitors of Enzymes Involved in Metabolic Syndrome and Antimicrobial Potential” (Molecules, 2020)
No end group written: not given here.

Experiments:
[1] = target: angiotensin converting enzyme (ACE) (Homo sapiens, UniProt P12821); assay: ACE inhibitor activity (HHL substrate, OPA) and kinetics; format: biochemical; settings: mean ± SD, triplicate; nd = not detected
Chain of angiotensin converting enzyme (ACE) (P12821 30-1306, species assumed): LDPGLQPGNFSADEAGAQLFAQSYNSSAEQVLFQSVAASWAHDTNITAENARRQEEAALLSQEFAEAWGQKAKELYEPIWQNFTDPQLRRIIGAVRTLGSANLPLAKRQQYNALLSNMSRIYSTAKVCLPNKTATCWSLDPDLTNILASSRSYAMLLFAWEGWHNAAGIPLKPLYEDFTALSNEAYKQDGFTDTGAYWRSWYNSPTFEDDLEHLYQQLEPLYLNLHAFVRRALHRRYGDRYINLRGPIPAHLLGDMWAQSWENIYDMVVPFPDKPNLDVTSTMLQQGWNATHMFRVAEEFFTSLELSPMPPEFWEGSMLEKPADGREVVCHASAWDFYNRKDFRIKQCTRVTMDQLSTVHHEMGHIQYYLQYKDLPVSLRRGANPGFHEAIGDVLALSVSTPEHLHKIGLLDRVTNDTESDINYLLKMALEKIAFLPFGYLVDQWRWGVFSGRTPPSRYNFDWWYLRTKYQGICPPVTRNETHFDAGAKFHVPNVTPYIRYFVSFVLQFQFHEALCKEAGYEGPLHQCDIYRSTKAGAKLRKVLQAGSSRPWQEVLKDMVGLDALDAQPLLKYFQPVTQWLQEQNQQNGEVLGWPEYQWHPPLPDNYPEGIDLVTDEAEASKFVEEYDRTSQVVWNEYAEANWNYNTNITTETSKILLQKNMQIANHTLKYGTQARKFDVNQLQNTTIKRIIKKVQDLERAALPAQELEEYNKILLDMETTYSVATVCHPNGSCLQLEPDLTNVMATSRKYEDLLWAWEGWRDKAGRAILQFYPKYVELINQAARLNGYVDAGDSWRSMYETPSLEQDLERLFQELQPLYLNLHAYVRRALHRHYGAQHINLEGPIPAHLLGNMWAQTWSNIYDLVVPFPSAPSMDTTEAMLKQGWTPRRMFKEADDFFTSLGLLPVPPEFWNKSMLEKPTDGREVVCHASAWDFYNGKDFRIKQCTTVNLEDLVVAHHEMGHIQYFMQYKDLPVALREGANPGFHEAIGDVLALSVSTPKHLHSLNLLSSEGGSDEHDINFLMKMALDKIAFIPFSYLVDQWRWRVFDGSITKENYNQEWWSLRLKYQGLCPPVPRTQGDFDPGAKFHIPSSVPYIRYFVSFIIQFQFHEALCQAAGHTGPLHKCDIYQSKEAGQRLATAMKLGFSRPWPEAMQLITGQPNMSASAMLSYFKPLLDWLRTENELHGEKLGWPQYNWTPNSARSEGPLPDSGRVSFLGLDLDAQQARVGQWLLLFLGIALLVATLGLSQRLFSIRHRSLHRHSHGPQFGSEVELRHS
Method: For all inhibitory activity, IC50 was calculated. The IC50 value defined as the concentration of the extract inhibiting 50% of the enzyme activity was determined by measuring the enzyme inhibitory activity and peptide contents in each sample. The IC50 value was calculated from the plotted graph of the inhibition activity for the five different peptide concentrations.
The angiotensin converting enzyme was prepared according to the method described by Karaś et al.. For ACE inhibitor activity, 5 μL of ACE was mixed with 5 μL of the samples and, after preincubation at 37 °C for 5 min, 5 μL of a 5 mM N-Hippuryl-L-histidyl-L-leucine (HHL) solution was added. The reaction was carried out at 37 °C for 60 min. Next, 0.1 M borate buffer with 0.2 M NaOH and 70 μL of an o-phthaldialdehyde OPA solution (20 mg/mL OPA in methanol) were added. The absorbance at 390 nm was measured using BioTek Microplate Readers ([…]).
Substrate solutions (5.0, 10.0, 15.0, and 20.0 mM) were prepared and used to determine the Michaelis constant (Km), the inhibition constant (Ki), and the maximum velocity (Vmax) of enzymes. The kinetic parameters were evaluated by Lineweaver–Burk’s method. The reaction conditions were the same as in the enzyme inhibitory activity assay.

HECa10 cells = assay: Neutral red (NR) test; format: cell-based, murine; settings: 24-h incubation, 0.1–100 µg/mL
Method: The study was conducted according to the procedure described by Rokicki et al.. HECa10 cells after 80–90% confluence were trypsinized (3 min, 37 °C), centrifuged (300 g, 5 min), counted, and plated in 96-well plates at a concentration of 1 × 10^4 cells/well. Then, 24 h after seeding, cells were washed with phosphate-buffered saline (PBS) solution and culture medium (Dulbecco’s Modified Eagle Medium (DMEM) + 10% fetal bovine serum (FBS) + antibiotics, all from Life Technologies, Warsaw, Poland) was added with test factors in concentrations: 0.1; 1; 5; 10; 50; 100 µg/mL). Then, 24 h after addition of the compounds, proliferation tests (MTT, NR, LDH) were performed. The color intensity was determined using a Fluostar Omega microplate reader. Results are presented as the mean ± SD of 3 independent experiments (n = 12).
The cells were seeded in a 96-well culture plate at a concentration of 1 × 10^4 cells/well. Then, 24 h after seeding, the cells were rinsed twice with PBS (Life Technologies, Poland) and resuspended in fresh growth medium. Peptide fractions were added at concentrations of 0 (control), 0.1, 1, 5, 10, 50, and 100 µg/mL. After 24 h of incubation with the proteins, the uptake of the neutral red (NR kit, Sigma Aldrich, Poznań, Poland,) was assessed. The absorption was measured at a wavelength of 540 nm with the background cutoff at 690 nm (FLUOstar Omega, BMG Labtech GmbH, Ortenberg, Germany). The results are presented as the percentage of the control values (mean ± SD). Each assay was performed in triplicate (n = 18).

Sequence | IC50 [1] [µM] | NR test, HECa10 cell count compared to control (HECa10 cells) | IC50 ACE [1]
EQGFLPGPEESGR [ER-13, EQGFLPGPEESGR] | 457 | no statistically significant differences | 
GEHGGAGMGGGQFQPV [GV-16, GEHGGAGMGGGQFQPV] | 490 | no statistically significant differences | 
GNPVGGVGHGTTGT [GT-14, GNPVGGVGHGTTGT] | 434 | no statistically significant differences | 
GQLGEHGGAGMG [GG-12, GQLGEHGGAGMG] | 525 | no statistically significant differences | 
RLARAGLAQ [RQ-9, RLARAGLAQ] |  | no statistically significant differences | no inhibitory effect
YGNPVGGVGH [YH-10, YGNPVGGVGH] | 522 | declined statistically significantly | 
